Source: the supplement of paper PMC10307832

What was measured:
Assay in all cases: relative viability (nuclei count vs DMSO), 5 days (fraction); higher = more cells survive
[1] = compound: COc1cc2nc(N3CCCN(C)CC3)nc(NC3CCN(Cc4ccccc4)CC3)c2cc1OC + CC(=O)c1c(C)c2cnc(Nc3ccc(N4CCNCC4)cn3)nc2n(C2CCCC2)c1=O [Palbociclib] (partner 0.5 µM)
Outline: (§1)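 The day after seeding in 1536-well plates, lung cancer cell lines were treated by pin tool with a single drug, or with a fixed anchor-drug dose together with five library-drug doses (not always all listed) in √10 steps. After 5 days, a combined fix-and-stain solution (final 0.05% Triton X-100, 1% formaldehyde, 1 ug/ml Hoechst) was added. Nuclei counted on 4× images gave relative viability as treated counts over vehicle counts, reported as the median of duplicate plates.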

[2] = compound: COc1cc2nc(N3CCCN(C)CC3)nc(NC3CCN(Cc4ccccc4)CC3)c2cc1OC + CC1(C)CCC(c2ccc(Cl)cc2)=C(CN2CCN(c3ccc(C(=O)NS(=O)(=O)c4ccc(N[C@H](CCN5CCOCC5)CSc5ccccc5)c(S(=O)(=O)C(F)(F)F)c4)cc3)CC2)C1 [Navitoclax] (partner 0.5 µM)
Outline: as §1

AZD6482 + Crizotinib = compound: Cc1cc([C@@H](C)Nc2ccccc2C(=O)O)c2nc(N3CCOCC3)cc(=O)n2c1 [AZD6482] + C[C@@H](Oc1cc(-c2cnn(C3CCNCC3)c2)cnc1N)c1c(Cl)ccc(F)c1Cl [Crizotinib] (partner 1 µM)
Outline: as §1

AZD6482 + Linsitinib = compound: Cc1cc([C@@H](C)Nc2ccccc2C(=O)O)c2nc(N3CCOCC3)cc(=O)n2c1 [AZD6482] + C[C@]1(O)C[C@@H](c2nc(-c3ccc4ccc(-c5ccccc5)nc4c3)c3c(N)nccn32)C1 [Linsitinib] (partner 1 µM)
Outline: as §1

NCI-H1944
relative viability ([1]; first compound 0.2 µM): 0.327
relative viability ([1]; first compound 0.6325 µM): 0.349
relative viability ([1]; first compound 2 µM): 0.326
relative viability ([1]; first compound 6.325 µM): 0.321
relative viability ([2]; first compound 0.2 µM): 1.1
relative viability ([2]; first compound 0.6325 µM): 1.02
relative viability ([2]; first compound 6.325 µM): 0.982
relative viability (AZD6482 + Crizotinib; first compound 0.08 µM): 1.01
relative viability (AZD6482 + Crizotinib; first compound 0.253 µM): 1.07
relative viability (AZD6482 + Crizotinib; first compound 0.8 µM): 1.12
relative viability (AZD6482 + Crizotinib; first compound 2.53 µM): 0.836
relative viability (AZD6482 + Crizotinib; first compound 8 µM): 0.792
relative viability (AZD6482 + Linsitinib; first compound 0.08 µM): 0.929
relative viability (AZD6482 + Linsitinib; first compound 0.253 µM): 0.834
relative viability (AZD6482 + Linsitinib; first compound 0.8 µM): 0.922
relative viability (AZD6482 + Linsitinib; first compound 2.53 µM): 0.688
relative viability (AZD6482 + Linsitinib; first compound 8 µM): 0.622

NCI-H1975
relative viability ([1]; first compound 0.2 µM): 0.567
relative viability ([1]; first compound 0.6325 µM): 0.603
relative viability ([1]; first compound 2 µM): 0.826
relative viability ([1]; first compound 6.325 µM): 0.586
relative viability ([2]; first compound 0.2 µM): 1.2
relative viability ([2]; first compound 0.6325 µM): 1.18
relative viability ([2]; first compound 2 µM): 1.21
relative viability ([2]; first compound 6.325 µM): 1.05
relative viability (AZD6482 + Crizotinib; first compound 0.08 µM): 0.841
relative viability (AZD6482 + Crizotinib; first compound 0.253 µM): 0.908
relative viability (AZD6482 + Crizotinib; first compound 0.8 µM): 1.03
relative viability (AZD6482 + Crizotinib; first compound 2.53 µM): 0.737
relative viability (AZD6482 + Crizotinib; first compound 8 µM): 0.764
relative viability (AZD6482 + Linsitinib; first compound 0.08 µM): 0.748
relative viability (AZD6482 + Linsitinib; first compound 0.253 µM): 0.938
relative viability (AZD6482 + Linsitinib; first compound 0.8 µM): 0.874
relative viability (AZD6482 + Linsitinib; first compound 2.53 µM): 0.739
relative viability (AZD6482 + Linsitinib; first compound 8 µM): 0.592

NCI-H1993
relative viability ([1]; first compound 0.2 µM): 0.582
relative viability ([1]; first compound 0.6325 µM): 0.721
relative viability ([1]; first compound 2 µM): 0.77
relative viability ([1]; first compound 6.325 µM): 0.748
relative viability ([2]; first compound 0.2 µM): 0.919
relative viability ([2]; first compound 0.6325 µM): 0.97
relative viability ([2]; first compound 2 µM): 1.04
relative viability ([2]; first compound 6.325 µM): 0.991
relative viability (AZD6482 + Crizotinib; first compound 0.08 µM): 0.671
relative viability (AZD6482 + Crizotinib; first compound 0.253 µM): 0.74
relative viability (AZD6482 + Crizotinib; first compound 8 µM): 0.764
relative viability (AZD6482 + Linsitinib; first compound 0.08 µM): 0.759
relative viability (AZD6482 + Linsitinib; first compound 0.253 µM): 0.775
relative viability (AZD6482 + Linsitinib; first compound 8 µM): 0.654

NCI-H2009
relative viability ([1]; first compound 0.2 µM): 0.222
relative viability ([1]; first compound 0.6325 µM): 0.253
relative viability ([1]; first compound 2 µM): 0.413
relative viability ([1]; first compound 6.325 µM): 0.24
relative viability ([2]; first compound 0.2 µM): 1.22
relative viability ([2]; first compound 0.6325 µM): 1.17
relative viability ([2]; first compound 2 µM): 1.2
relative viability ([2]; first compound 6.325 µM): 1.15
relative viability (AZD6482 + Crizotinib; first compound 0.08 µM): 0.884
relative viability (AZD6482 + Crizotinib; first compound 0.253 µM): 1.03
relative viability (AZD6482 + Crizotinib; first compound 0.8 µM): 1.05
relative viability (AZD6482 + Crizotinib; first compound 2.53 µM): 0.693
relative viability (AZD6482 + Crizotinib; first compound 8 µM): 0.813
relative viability (AZD6482 + Linsitinib; first compound 0.08 µM): 0.911
relative viability (AZD6482 + Linsitinib; first compound 0.253 µM): 1.18
relative viability (AZD6482 + Linsitinib; first compound 0.8 µM): 1.16
relative viability (AZD6482 + Linsitinib; first compound 2.53 µM): 0.68
relative viability (AZD6482 + Linsitinib; first compound 8 µM): 0.795

NCI-H2023
relative viability ([1]; first compound 0.2 µM): 0.379
relative viability ([1]; first compound 0.6325 µM): 0.337
relative viability ([1]; first compound 2 µM): 0.4
relative viability ([1]; first compound 6.325 µM): 0.0878
relative viability ([2]; first compound 0.2 µM): 1.02
relative viability ([2]; first compound 0.6325 µM): 1.01
relative viability ([2]; first compound 2 µM): 1.03
relative viability ([2]; first compound 6.325 µM): 0.616
relative viability (AZD6482 + Crizotinib; first compound 0.08 µM): 0.535
relative viability (AZD6482 + Crizotinib; first compound 0.253 µM): 0.615
relative viability (AZD6482 + Crizotinib; first compound 0.8 µM): 0.509
relative viability (AZD6482 + Crizotinib; first compound 2.53 µM): 0.411
relative viability (AZD6482 + Crizotinib; first compound 8 µM): 0.494
relative viability (AZD6482 + Linsitinib; first compound 0.08 µM): 0.373
relative viability (AZD6482 + Linsitinib; first compound 0.253 µM): 0.337
relative viability (AZD6482 + Linsitinib; first compound 0.8 µM): 0.322
relative viability (AZD6482 + Linsitinib; first compound 2.53 µM): 0.199
relative viability (AZD6482 + Linsitinib; first compound 8 µM): 0.234

NCI-H2085
relative viability ([1]; first compound 0.2 µM): 0.455
relative viability ([1]; first compound 0.6325 µM): 0.484
relative viability ([1]; first compound 2 µM): 0.5
relative viability ([1]; first compound 6.325 µM): 0.458
relative viability ([2]; first compound 0.2 µM): 1.03
relative viability ([2]; first compound 0.6325 µM): 1.12
relative viability ([2]; first compound 2 µM): 1.27
relative viability ([2]; first compound 6.325 µM): 0.981
relative viability (AZD6482 + Crizotinib; first compound 0.08 µM): 0.818
relative viability (AZD6482 + Crizotinib; first compound 0.253 µM): 0.537
relative viability (AZD6482 + Crizotinib; first compound 0.8 µM): 0.519
relative viability (AZD6482 + Crizotinib; first compound 2.53 µM): 0.316
relative viability (AZD6482 + Crizotinib; first compound 8 µM): 0.358
relative viability (AZD6482 + Linsitinib; first compound 0.08 µM): 0.453
relative viability (AZD6482 + Linsitinib; first compound 0.253 µM): 0.422
relative viability (AZD6482 + Linsitinib; first compound 0.8 µM): 0.327
relative viability (AZD6482 + Linsitinib; first compound 2.53 µM): 0.26
relative viability (AZD6482 + Linsitinib; first compound 8 µM): 0.467

NCI-H2087
relative viability ([1]; first compound 0.2 µM): 0.233
relative viability ([1]; first compound 0.6325 µM): 0.201
relative viability ([1]; first compound 2 µM): 0.219
relative viability ([1]; first compound 6.325 µM): 0.215
relative viability ([2]; first compound 0.2 µM): 1.06
relative viability ([2]; first compound 0.6325 µM): 0.933
relative viability ([2]; first compound 2 µM): 1.28
relative viability ([2]; first compound 6.325 µM): 0.854
relative viability (AZD6482 + Crizotinib; first compound 0.08 µM): 0.805
relative viability (AZD6482 + Crizotinib; first compound 0.253 µM): 0.93
relative viability (AZD6482 + Crizotinib; first compound 0.8 µM): 0.997
relative viability (AZD6482 + Crizotinib; first compound 2.53 µM): 0.827
relative viability (AZD6482 + Crizotinib; first compound 8 µM): 0.984
relative viability (AZD6482 + Linsitinib; first compound 0.08 µM): 0.902
relative viability (AZD6482 + Linsitinib; first compound 0.253 µM): 0.929
relative viability (AZD6482 + Linsitinib; first compound 0.8 µM): 1.09
relative viability (AZD6482 + Linsitinib; first compound 2.53 µM): 0.815
relative viability (AZD6482 + Linsitinib; first compound 8 µM): 0.964

NCI-H2126
relative viability ([1]; first compound 0.2 µM): 0.373
relative viability ([1]; first compound 0.6325 µM): 0.325
relative viability ([1]; first compound 2 µM): 0.367
relative viability ([1]; first compound 6.325 µM): 0.328
relative viability ([2]; first compound 0.2 µM): 0.847
relative viability ([2]; first compound 0.6325 µM): 0.777
relative viability ([2]; first compound 2 µM): 0.804
relative viability ([2]; first compound 6.325 µM): 0.81
relative viability (AZD6482 + Crizotinib; first compound 0.08 µM): 0.954
relative viability (AZD6482 + Crizotinib; first compound 0.253 µM): 0.987
relative viability (AZD6482 + Crizotinib; first compound 0.8 µM): 1.01
relative viability (AZD6482 + Crizotinib; first compound 2.53 µM): 0.787
relative viability (AZD6482 + Crizotinib; first compound 8 µM): 0.777
relative viability (AZD6482 + Linsitinib; first compound 0.08 µM): 0.551
relative viability (AZD6482 + Linsitinib; first compound 0.253 µM): 0.591
relative viability (AZD6482 + Linsitinib; first compound 0.8 µM): 0.518
relative viability (AZD6482 + Linsitinib; first compound 2.53 µM): 0.485
relative viability (AZD6482 + Linsitinib; first compound 8 µM): 0.548

NCI-H2228
relative viability ([1]; first compound 0.2 µM): 0.63
relative viability ([1]; first compound 0.6325 µM): 0.808
relative viability ([1]; first compound 2 µM): 0.835
relative viability ([1]; first compound 6.325 µM): 0.509
relative viability ([2]; first compound 0.2 µM): 0.703
relative viability ([2]; first compound 0.6325 µM): 0.742
relative viability ([2]; first compound 2 µM): 0.797
relative viability ([2]; first compound 6.325 µM): 0.415
relative viability (AZD6482 + Crizotinib; first compound 0.08 µM): 0.368
relative viability (AZD6482 + Crizotinib; first compound 0.253 µM): 0.46
relative viability (AZD6482 + Crizotinib; first compound 0.8 µM): 0.308
relative viability (AZD6482 + Crizotinib; first compound 2.53 µM): 0.254
relative viability (AZD6482 + Crizotinib; first compound 8 µM): 0.275
relative viability (AZD6482 + Linsitinib; first compound 0.08 µM): 0.48
relative viability (AZD6482 + Linsitinib; first compound 0.253 µM): 0.38
relative viability (AZD6482 + Linsitinib; first compound 0.8 µM): 0.38
relative viability (AZD6482 + Linsitinib; first compound 2.53 µM): 0.469
relative viability (AZD6482 + Linsitinib; first compound 8 µM): 0.428
